Like-named read-outs stand apart in the source and are kept apart here. Where a SMILES comes first, the peptide text is derived from it. The star is where a group is joined. Doxorubicin(3'-N) = COc1cccc2c1C(=O)c1c(O)c3c(c(O)c1C2=O)C[C@@](O)(C(=O)CO)C[C@@H]3O[C@H]1C[C@H](N*)[C@H](O)[C@H](C)O1
Key:
[1] = Pharmacokinetics after intravenous injection; type: in vivo, mice
Experimental: (§1) The 6-week male BALB/c and BALB/c nu/nu mice were purchased from NaraBio (Gyeonggi-do, Republic of Korea). Mice were bred under pathogen-free conditions in the Korea Institute of Science and Technology (KIST). All experiments with animals were performed in compliance with the relevant laws and institutional guidelines of Institutional Animal Care and Use Committee (IACUC; approved number of 2020-123) in Korea Institute of Science and Technology (KIST). […] After treatment, blood samples were collected from mice by cardiac puncture after deep anesthesia at pre-determined times, followed by analysis with HPLC with fluorescence detector. The PK parameters including area under the curves (AUC), clearance (CL), volume of distribution (Vd) and half-life (t1/2) were calculated using a WinNonlin software. […] The fluorescence intensities in the tumor regions were quantified using a Living Image software (PerkinElmer, Waltham, MA, USA). The ex vivo NIRF imaging of collected major organs after 9 h of injection was also performed using IVIS Lumina Series III system. […] For this analysis, each tissue was cut into 8-μm sections using rotary microtome and analyzed via confocal laser scanning microscope (CLSM) equipped with 405 diode (405 nm) and HeNe-Red (633 nm) lasers.

[2] = system: BALB/c mice; experiment: Toxicity study after single-dosage
Experimental: (§4) The safety of F68-FDOX treatment was assessed by histological and hematological analyses. Briefly, DOX (4 mg/kg), FRRG-DOX (4 mg/kg based on DOX contents) or F68-FDOX (4 mg/kg based on DOX contents) were intravenously injected into BALB/c mice. On day 9 after treatments, major organs were collected from mice, and structural abnormalities and apoptosis in organ tissues were assessed by staining with H&E or TUNEL, respectively. In case of hematological analyses, blood samples were collected from mice on day 9. For the complete blood count (CBC) analyses, each blood sample was mixed with EDTA, and a portion of blood sample was centrifuged at 2100 rpm for 20 min to obtain blood plasma. The following factors in blood samples were measured; albumin/globulin ratio (A/G), troponin-I, albumin (Alb), total protein (TP), alanine aminotransferase (ALT), total cholesterol (T-Chol), blood urea nitrogen (BUN), alkaline phosphatase (ALP), red blood cell (RBC), white blood cell (WBC), mean corpuscular hemoglobin (MCH), mean corpuscular volume (MCV), hematocrit (HCT), hemoglobin (HGB) and platelet (PLT). To assess the safety of F68-FDOX treatment after multiple-dosage, DOX (4 mg/kg), FRRG-DOX (4 mg/kg based on DOX contents) or F68-FDOX (4 mg/kg based on DOX contents) were injected into mice once every three days. Then, histological and hematological analyses were performed as described above.

[3] = system: KPC960 cells; experiment: CCK-8 cytotoxicity; type: cell-based, human; settings: 48 h treatment
Experimental: (§2) The cytotoxicity of F68-FDOX was assessed via a cell counting kit-8 (CCK-8) assays. First, 1 × 10^5 HT29, MDA-MB231, KPC960 or H9C2 cells were seeded into 96-well cell culture plates. […] Finally, cell viability was measured by a microplate reader (VERSAmaxTM; Molecular Devices Corp., USA) with 450 nm of wavelength.

[4] = system: H9C2 cells; experiment: CCK-8 cytotoxicity; type: cell-based, rat; settings: 48 h treatment, normal cardiomyocytes
Experimental: as §2

[5] = system: HT29 tumor-bearing mice; experiment: Pharmacodynamics, histological analysis of organs and tumor tissues (CLSM); type: in vivo; settings: i.v. 4 mg/kg based on DOX, 9 h after injection
Experimental: as §1

[6] = system: HT29 tumor; experiment: Antitumor activity, colon tumor model; type: in vivo
Experimental: (§3) The antitumor activity was evaluated in colon, breast and pancreatic cancer models, which were prepared by subcutaneous injection with 1 × 10^7 HT29, MDA-MB231 or KPC960 cells, respectively. […] The mice were treated once every three days, and tumor volumes were calculated as the largest diameter × smallest diameter^2 × 0.53, every 2 days. The mice with a tumor size of 2000 mm^3 or higher were counted as dead. To analyze the antitumor activity in a single cell level, the tumor tissues were collected on day 9, and single cell were isolated from the tumor tissues using a Tumor Dissociation Kit. After cell counting, single cells were stained with Annexin V for 1 h in room temperature and analyzed via flow cytometer.

[7] = system: colon (HT29) tumor tissues; experiment: Annexin V staining of single tumor cells (flow cytometry); type: in vivo, mice; settings: day 9 after treatment, mean
Experimental: as §3

[8] = system: BALB/c mice; experiment: Toxicity study after multi-dosage; type: in vivo
Experimental: as §4

[9] = system: mice; settings: 5 mg/kg free DOX two times (Total 10 mg/kg); ref [42]; cited from earlier work
Experimental: […] […] Even though same dose of equal drugs was administered into the mice, the outcomes can be varied according to the not only the number and intervals of the administration, but also different reactivity by species, feeding environment and age of the ...

[10] = type: in vitro ADME, mouse
Source text: The carrier-free doxorubicin (DOX) prodrug nanoparticles were designed as an alternative formulation to overcome several problems of conventional nano-sized drug delivery system in the terms of technical- and industrial-aspects. […] This absolutely simplified one-step synthesis protocol allowed 100 g batch of preparation as described in “Methods” section. […] In addition, their precise and concise structure allow easy quality control (QC) after synthesis; thus, we could verify the successful preparation of FRRG-DOX by confirming chemical structure, exact mass and purity via ^1H NMR, MALDI-TOF (calculated mass: 1102.17 Da, measured mass: 1102.595 m/z) and HPLC (99%), respectively (Additional file 1: Fig. S2). Importantly, FRRG-DOX molecules self-assembled into prodrug nanoparticles by its intermolecular π-π stacking hydrophobic interactions without any additional carrier materials, resulting in high drug loading (> 50%). […] This was clearly supported by MALDI-TOF measurement, wherein the molecular weights of G-DOX (calculated mass: 600.58 Da, measured mass: 656.4 m/z [M + Li] and 657.4 m/z [M + Li + H]) were confirmed at the newly appeared peak (13 min) in the HPLC spectrum after incubation of F68-FDOX with cathepsin B (Additional file 1: Fig. S6). […]

[11] = type: physicochemical
Experimental: Finally, we developed F68-FDOX as a lyophilized powder form and evaluated the long-term storage stability of lyophilized F68-FDOX powder stored for 3, 6, 12 months in the low (− 4 °C), room (37 °C) or accelerated (60 °C) condition; for these studies, size distribution, chemical structure and purity were analyzed after reconstitution of lyophilized powder stored at each condition (Additional file 1: Fig. S7–S9). […] Taken together, the manufacturing operation for mass production of F68-FDOX was optimized for preclinical development, and their physicochemical characterization, such as size distribution, particle stability, target enzyme-specificity, and even the long-term storage stability was successfully evaluated in vitro.
To prepare carrier-free prodrug nanoparticles, the cancer-specific prodrug was simply synthesized by conjugating cathepsin B-specific cleavable tetrapeptide (Phe-Arg-Arg-Gly; FRRG) to DOX via one-step reaction. […] The FRRG-DOX was purified using Sep-Pak C18 column chromatography and the resulting filtrate was analyzed via RP-HPLC (Agilent 1200 Series HPLC System). […] The long-term storage stability of FRRG-DOX power was assessed after storage of 3, 6, 12 months in the low (− 4 °C), room (37 °C) or accelerated (60 °C) condition, followed by analysis of size, chemical structure and purity as described above. […]

[12] = system: HT29 tumor-bearing mice; settings: mouse, in vivo, iv, 4 mg/kg
Experimental: as §1

[13] = system: BALB/c mice; settings: mouse, in vivo, iv, 10 mg/kg
Experimental: as §4

[14] = BALB/c mice, i.v. 10 mg/kg based on DOX, single dose
[15] = mice, i.v., 4 mg/kg based on DOX contents, WinNonlin
[16] = treatment five times with 3 days-intervals

Work on COc1cccc2c1C(=O)c1c(O)c3c(c(O)c1C2=O)C[C@@](O)(C(=O)CO)C[C@@H]3O[C@H]1C[C@H](NC(=O)CNC(=O)[C@H](CCCNC(=N)N)NC(=O)[C@H](CCCNC(=N)N)NC(=O)[C@H](Cc2ccccc2)NC(C)=O)[C@H](O)[C@H](C)O1 [FRRG-DOX] (Ac-FRRG-{Doxorubicin(3'-N)}) yielded an AUCinf ([1]; mouse, in vivo, iv, 4 mg/kg) of 407.71 ± 85.81 µg·h/mL, an AUClast ([1]; mouse, in vivo, iv, 4 mg/kg) of 345.99 ± 68.9 µg·h/mL and a CL ([1]; mouse, in vivo, iv, 4 mg/kg) of 0.1692 ± 0.0405 mL/min/kg. The Vd ([1]; mouse, in vivo, iv, 4 mg/kg) was 0.0832 ± 0.03185 L/kg, the “half-life (t1/2)” value ([1]; mouse, in vivo, iv, 4 mg/kg) was 7.96 ± 4.59 h and the “body weight change, single-dosage” value [2, 14] was “no significant body weight loss”.
COc1cccc2c1C(=O)c1c(O)c3c(c(O)c1C2=O)C[C@@](O)(C(=O)CO)C[C@@H]3O[C@H]1C[C@H](N)[C@H](O)[C@H](C)O1 [DOX, doxorubicin] gave an IC50 [3] of 7.32 µM, an IC50 [4] of 13.8 µM and a CL [1, 15] of 3.02 ± 0.638 mL/min/kg. For the same compound, the Vd [1, 15] was 0.304 ± 0.0976 L/kg, the “half-life (t1/2)” value [1, 15] was 1.33 ± 0.23 h and the AUClast ([1]; mice, i.v., 4 mg/kg based on DOX contents, blood, HPLC with fluorescence detector, WinNonlin) was 22.18 ± 4.52 µg·h/mL. For the same compound, the “distribution in major organs and tumor tissues (histology)” value [5] was “non-specifically distributed in all the major organs and low tumor accumulation”, the “colon tumor volume on day 9 after treatment” value ([6]; HT29 s.c. tumor, i.v. 4 mg/kg based on DOX once every three days) was 478.75 ± 49.87 mm^3 and the “time within which all mice were dead (tumor model)” value ([6]; HT29 tumor-bearing mice, i.v. 4 mg/kg once every three days) was no more than 9 days. The “percentage of apoptotic (Annexin V-positive) tumor cells” value [7] was 17.7 ± 1.51%, the “histology of liver, spleen and heart tissues, multi-dosage” value ([8]; day 7, H&E) was “severe tissue damages” and the “hematological parameters, multi-dosage” value ([8]; day 7, treatment with 3 days-intervals) was “remarkably got out from the normal range”. The “body weight change, multi-dosage” value [8, 16] was “severe body weight loss”, the “time within which all mice were dead, multi-dosage” value [8, 16] was no more than 7 days and the “time within which all mice were dead” value [9] was “within two weeks”. The “body weight change, single-dosage” value [2, 14] was “gradually reduced”, the “time within which all mice were dead, single-dosage” value [2, 14] was no more than 9 days and the “complete blood count (CBC) analyses, single-dosage” value ([2]; day 9, i.v. 10 mg/kg) was “severe leukopenia, oligocythemia and thrombocytopenia”. For the same compound, the “serological examination (BUN, ALT, troponin-I), single-dosage” value ([2]; day 9, i.v. 10 mg/kg) was “severe cardiac, renal and hepatic toxicity” and the “major organ tissues stained with H&E or TUNEL, single-dosage” value ([2]; day 9, i.v. 10 mg/kg based on DOX) was “elevated structural abnormalities with apoptosis”.
In the case of Phe-Arg-Arg-Gly [F68-FDOX], the “time of high stability without significant changes of size and polydispersity index in mouse serum” value [10] is reported as no less than 6 days, the “stability 24 h after reconstitution (size distribution, chemical structure, purity)” value [11] is reported as “no significant changes” and the AUCinf ([1]; mouse, in vivo, iv, 4 mg/kg) is reported as 1367.44 ± 14.35 µg·h/mL. The AUClast ([1]; mouse, in vivo, iv, 4 mg/kg) was 1281.17 ± 240 µg·h/mL, the CL ([1]; mouse, in vivo, iv, 4 mg/kg) was 0.0488 ± 0.0005 mL/min/kg and the Vd ([1]; mouse, in vivo, iv, 4 mg/kg) was 0.1 ± 0.00269 L/kg. The “time for which a detectable amount remained in the body” value ([1]; mouse, in vivo, iv, 4 mg/kg) was 96 h, the “fluorescence intensity in tumor tissues relative to FRRG-DOX (NIRF)” value [12] was 2.42–2.71 fold and the “histology of liver, spleen and heart tissues, multi-dosage” value ([8]; mouse, in vivo) was “without damage to the normal organs”. The “all hematological parameters, single-dosage” value [13] was “in normal range”, the “body weight change, single-dosage” value [13] was “no significant body weight loss” and the “major organ tissues stained with H&E or TUNEL, single-dosage” value [13] was “did not induce noticeable tissue damages”.

— publication PMC9531438, “Preclinical development of carrier-free prodrug nanoparticles for enhanced antitumor therapeutic potential with less toxicity” (Journal of Nanobiotechnology, 2022)
